In patent publication US9629786B2, “Monoterpene derivatives of chalcone or dihydrochalcone and their use as depigmenting agents” (PIERRE FABRE DERMO-COSMETIQUE, priority 2011, dated 2017):

How the values were obtained:
fungal tyrosinase = details: monophenoloxidase activity on fungal tyrosinase; cited from earlier work
plasmodial = details: cited from earlier work
cancer cell line (lung) = details: cited from earlier work
[1] = system: murine melanoma cell line B16-F10; test: Inhibition of melanin synthesis, colorimetric assay on B16-F10; type: cell-based; details: Mus musculus, B16-F10 cells
Description: Pharmacological Testing: Inhibition of Melanin Synthesis:
We have developed a test for measuring melanin synthesis by using a colorimetric assay on the murine melanoma cell line B16-F10. This assay enables to test the depigmenting power of active ingredients.

[2] = Stability of chalcone (cyclization to flavanone); type: physicochemical; details: for stability (cyclization to flavanone): purified / pure form
Description: More preferably, ? is a double bond, R1=H and R2=OH, that is to say the extract according to the invention is enriched with gymnochalcone. […] In fact, cyclization of chalcones to flavanone, upon addition of a hydroxyl group on 1,4-position in the carbonyl group by a Michael type reaction, which brings about instability of the chalcones, is not observed in this case.
Thus preferably gymnochalcone will be used in the form of an extract of Helichrysum gymnocephalum.

| IC50 [1] [µM] | stability (cyclization to flavanone) [2] | Compound | other results |
| --- | --- | --- | --- |
| 158 | – | OC[C@H]1O[C@@H](Oc2ccc(O)cc2)[C@H](O)[C@@H](O)[C@@H]1O [Arbutin, reference compound] | – |
| 31 | – | COc1ccc(O)cc1 [Hydroquinone monomethyl ether, reference compound] | – |
| 2400 | – | O=c1cc(CO)occ1O [Kojic acid, reference compound] | – |
| 5 | stable in such form | CC1=CC(c2c(O)cc(O)c(C(=O)CCc3ccccc3)c2O)C(C(C)C)CC1 (stereo not shown) [Linderatin, linderatin] | – |

Continued, compound first:

| Compound | IC50 [1] [µM] | stability (cyclization to flavanone) [2] | other results |
| --- | --- | --- | --- |
| O=C(/C=C/c1ccccc1)c1c(O)cc(O)cc1O [2′,4′,6′-Trihydroxychalcone (II), 2′,4′,6′-Trihydroxychalcone] | – | – | IC50 (fungal tyrosinase): 120 µM |
| COc1cc(O)c(C(=O)CCc2ccccc2)c(O)c1[C@H]1C=C(C)CC[C@@H]1C(C)C [(−)-Methyl-linderatin] | – | – | anti-plasmodial activity (plasmodial): anti-plasmodial activity |
| CC1=C[C@H](c2c(O)cc(O)c(C(=O)CCc3ccccc3)c2O)[C@H](C(C)C)CC1 [(−)-linderatin] | – | – | cytotoxicity (cancer cell line (lung)): exhibited cytotoxicity |
| CC1=CC(c2c(O)cc(O)c(C(=O)/C=C/c3ccccc3)c2O)C(C(C)(C)O)CC1 (stereo not shown) [Gymnochalcone, gymnochalcone] | 17 | cyclization is observed | stability in time ([2]; in the extract of Helichrysum gymnocephalum): stable in time |
| COc1cc(O)c(C(=O)CCc2ccccc2)c(O)c1C1C=C(C)CCC1C(C)C (stereo not shown) [Methyllinderatin, methyllinderatin] | 6 | stable in such form | – |
